Test results as given in patent US9101577B2, “Analgesic pharmaceutical composition for oral administration” (Warszawski Uniwersytet Medyczny, priority 2011, dated 2015).

How the values were obtained:
Male Wistar rats [1] = assay: Acute activity after single p.o. administration, paw withdrawal test (Randall and Selitto), % of analgesia; assay type: in vivo, rat; conditions: for analgesic activity on separate administration (codeine study) / analgesic activity / pain perception threshold on separate administration (dihydrocodeine study) / analgesic activity / pain threshold when administered alone (morphine study) / analgesic activity on separate administration (oxycodone study) / analgesic activity on separate administration (tramadol study): single separate administration p.o., magnesium salts 15 mg magnesium ions/kg; for analgesic activity on separate administration (codeine study): codeine 175 mg/kg; for analgesic activity / pain perception threshold on separate administration (dihydrocodeine study): dihydrocodeine 50 mg/kg; for effect on analgesic activity of codeine / activity on codeine analgesia compared to micronized form: 15 mg magnesium ions/kg p.o. with codeine 175 mg/kg p.o.; for effect on morphine analgesia / activity on morphine analgesia in comparison (to micronized magnesium lactate / to micronized form) / enhancement of morphine analgesia lasted up to: 15 mg magnesium ions/kg p.o. with morphine 15 mg/kg p.o.; for analgesic activity / pain threshold when administered alone (morphine study): morphine 15 mg/kg; for analgesic activity on separate administration (oxycodone study): oxycodone 5 mg/kg; for analgesic activity on separate administration (tramadol study): tramadol 125 mg/kg
Method: (§1) Male Wistar rats (250-300 g) were housed in a room maintained at a temperature of 20±2° C. under 12 h-12 h light-dark cycles. The animals had free access to food and water. Experimental groups consisted of six rats.
(§2) Drugs • Morphine at a dose of 15 mg/kg, codeine at a dose of 175 mg/kg, tramadol at a dose of 125 mg/kg and oxycodone at a dose of 5 mg/kg were dissolved in distilled water; • Dihydrocodeine at a dose of 50 mg/kg was suspended in 1% solution of methylcellulose; • Magnesium lactate (in micronized form)—at a dose of 15 mg magnesium ions/kg (150 mg of magnesium lactate/kg) was suspended in 0.5% solution of methylcellulose; • Magnesium lactate in normal (non-micronized) form—at doses of 15 or 30 mg magnesium ions/kg (150 or 300 mg of magnesium lactate/kg, respectively) was suspended in 0.5% solution of methylcellulose; • Magnesium citrate (in micronized and normal form)—at a dose of 15 mg magnesium ions/kg (112 mg of magnesium citrate/kg) was dissolved in distilled water; • Magnesium hydroaspartate (in micronized and normal form)—at a dose of 15 mg magnesium ions/kg (216 mg of magnesium hydroaspartate/kg) was suspended in 0.5% solution of methylcellulose; • Magnesium chloride (in micronized and normal form)—at a dose of 15 mg magnesium ions/kg (59.5 mg of magnesium chloride/kg) was dissolved in distilled water; • Control animals received a 0.5% solution of methylcellulose, a 1% solution of methylcellulose and distilled water, respectively, according to the same time schedule.
Magnesium salts and investigated opioids were administered concomitantly.
The micronized form of magnesium salts used in experiments contains particles of magnesium compounds of size D90<50 μm.
The normal magnesium salts form used in experiments contains particles of sizes commonly available in the market.
Acute activity of investigated drugs was measured in short time periods (from 5 to 300 min) after single administration.
(§3) All drugs were administered per os (p.o.); literally—orally. However, in practice, drugs were administered intragastric via a gastric tube.
(§4) Changes in pain thresholds were determined using a mechanical stimuli—the modification of the classic paw withdrawal test described by Randall and Selitto [1957]. In order to produce mechanical stimulation, progressively increasing pressure was applied to the dorsal surface of the rat's paw using an analgesymeter. The instrument used increased the force on the paw at a rate of 32 grams per second. The nociceptive threshold was defined as force in grams, at which the rat attempted to withdraw its right hindpaw and values of pressure were recorded at this very moment. At least two observers controlled the response.
(§5) Nociceptive thresholds (average of two trials) measured for each animal before single administration of investigated drugs (measurement of acute activity) or in day 0 before the first administration (measurement of prolonged activity) constituted the baseline pain threshold—A. Next, measurements of the withdrawal threshold to mechanical stimuli were performed at 5, 15, 30, 60, 90, 120, 180, 240, 300 min after drug administration (measurements of acute activity) or every day before drug administration (measurements of prolonged activity)—B.
(§6) In all experimental sessions (i.e. every day, each drug investigated) values of thresholds obtained (B) were compared to baseline (A).
(§7) Changes in pain threshold were calculated as a percent of baseline value according to the following formula:
(§8) [formula] • C—% of analgesia; A—pressure (in g), baseline pain threshold; B—pressure (in g) in consecutive measurements.
(§9) Percents of analgesia values calculated as above for individual animals were subsequently used to calculate average values in particular experimental groups and for statistical analysis.
The results are expressed as mean values±standard deviation of the mean (±S.E.M.).

Male Wistar rats [2] = assay: Prolonged activity on repeated daily p.o. administration (7 or 10 days), paw withdrawal test (Randall and Selitto); assay type: in vivo, rat; conditions: separate administration p.o., magnesium lactate micronized 15 or normal 30 mg magnesium ions/kg
Method: as §1, §2
Prolonged activity of the investigated drugs was measured the following day after initial administration, but before the next administration as well as after cessation of administration. Drugs were administered for seven consecutive days (administration of morphine, codeine, dihydrocodeine, oxycodone) or for ten days (administration of tramadol).
as §3, §4, §5, §6, §7, §8, §9
The results are expressed as mean values±standard […] of the mean (±S.E.M.). The statistical significance of differences between groups was evaluated by Student's t-test. p≦0.05 was accepted as statistically significant.

[3] = single administration, 15 mg magnesium ions/kg p.o. with tramadol 125 mg/kg p.o.
[4] = single administration, 15 mg magnesium ions/kg p.o. with oxycodone 5 mg/kg p.o.
[5] = single administration, 15 mg magnesium ions/kg p.o. with dihydrocodeine 50 mg/kg p.o.

Row | Compound | analgesic activity on separate administration (codeine study) (Male Wistar rats [1]) | analgesic activity / pain perception threshold on separate administration (dihydrocodeine study) (Male Wistar rats [1]) | analgesic activity / pain threshold when administered alone (morphine study) (Male Wistar rats [1]) | analgesic activity on separate administration (oxycodone study) (Male Wistar rats [1]) | analgesic activity on separate administration (tramadol study) (Male Wistar rats [1]) | activity on dihydrocodeine analgesia in comparison (to micronized form / to magnesium lactate) (Male Wistar rats [1]; [5]) | activity on morphine analgesia in comparison (to micronized magnesium lactate / to micronized form) (Male Wistar rats [1]; single administration) | further results
1 | COc1ccc2c3c1O[C@H]1[C@@H](O)C=C[C@H]4[C@@H](C2)N(C)CC[C@@]341 [codeine, reference compound] | did not exhibit analgesic activity |  |  |  |  |  |  | analgesic activity on separate administration, 7 days (codeine study) (Male Wistar rats [2]; codeine 175 mg/kg): did not exhibit analgesic activity
2 | COc1ccc2c3c1O[C@H]1[C@@H](O)CC[C@H]4[C@@H](C2)N(C)CC[C@@]341 [dihydrocodeine, reference compound] |  | only insignificantly raised the pain perception threshold (90-120 min) |  |  |  |  |  | pain threshold on separate administration, 7 days (dihydrocodeine study) (Male Wistar rats [2]; dihydrocodeine 50 mg/kg): insignificantly raised the nociceptive stimulus threshold on days 6 and 7
3 | [Cl-].[Cl-].[Mg+2] [magnesium chloride, Magnesium chloride] |  |  |  |  |  |  |  | enhancement of tramadol analgesia lasted until (Male Wistar rats [1]; [3]): 90 min; time at which enhancement of tramadol analgesia appeared (Male Wistar rats [1]; [3]): 5 min; time of maximum activity on tramadol analgesia (Male Wistar rats [1]; [3]): 15 min
4 | N[C@@H](CC(=O)[O-])C(=O)[O-].N[C@@H](CC(=O)[O-])C(=O)[O-].[H+].[H+].[Mg+2] [magnesium hydroaspartate, Magnesium hydroaspartate] |  |  |  |  |  |  |  | effect on oxycodone analgesia (Male Wistar rats [1]; [4]): also enhanced oxycodone analgesia
5 | [Cl-].[Cl-].[Mg+2] [micronized magnesium chloride, Magnesium chloride] | did not exhibit analgesic activity | did not exhibit analgesic activity | Neither morphine nor magnesium lactate and chloride in micronized or normal form administered alone showed analgesic activity | showed no analgesic activity | did not exhibit analgesic activity |  |  | effect on analgesic activity of codeine (Male Wistar rats [1]; single administration): significantly enhanced the analgesic activity of codeine; effect on dihydrocodeine analgesia (Male Wistar rats [1]; [5]): significantly enhanced dihydrocodeine analgesia; time course of activity on dihydrocodeine analgesia (Male Wistar rats [1]; [5]): gradually increased and reached a maximum between min 45 and 90 of the measurements and then became weaker by min 210; effect on morphine analgesia (Male Wistar rats [1]; single administration): significantly enhanced morphine analgesia; effect on oxycodone analgesia (Male Wistar rats [1]; [4]): significantly enhanced oxycodone analgesia; time at which activity on oxycodone analgesia appeared (Male Wistar rats [1]; [4]): 5 min; time course of activity on oxycodone analgesia (Male Wistar rats [1]; [4]): maintained at a constant level up to min 30 of the study, then became weaker in min 45 and disappeared in min 60; effect on antinociceptive activity of tramadol (Male Wistar rats [1]; [3]): increased antynociceptive activity of tramadol
6 | N[C@@H](CC(=O)O)C(=O)O [micronized magnesium hydroaspartate, Magnesium hydroaspartate] | did not exhibit analgesic activity | did not exhibit analgesic activity | did not alter the pain threshold | showed no analgesic activity | did not exhibit analgesic activity | lasted a shorter time | weaker, although significant | effect on analgesic activity of codeine (Male Wistar rats [1]; single administration): also enhanced codeine analgesia; effect on dihydrocodeine analgesia (Male Wistar rats [1]; [5]): also enhanced dihydrocodeine analgesia; effect on morphine analgesia (Male Wistar rats [1]; single administration): also enhanced morphine analgesia; enhancement of morphine analgesia lasted up to (Male Wistar rats [1]; single administration): 180 min; activity on tramadol analgesia in comparison (to micronized form / to magnesium chloride) (Male Wistar rats [1]; [3]): weaker throughout the study; effect on antinociceptive activity of tramadol (Male Wistar rats [1]; [3]): also enhanced tramadol analgesia
7 | [Cl-].[Cl-].[Mg+2] [normal magnesium chloride, Magnesium chloride] |  |  |  |  |  | somewhat weaker |  | 
8 | N[C@@H](CC(=O)O)C(=O)O [normal magnesium hydroaspartate, Magnesium hydroaspartate] | did not exhibit analgesic activity | did not exhibit analgesic activity | did not alter the pain threshold | showed no analgesic activity | did not exhibit analgesic activity | significantly weaker | much weaker | activity on codeine analgesia compared to micronized form (Male Wistar rats [1]; single administration): significantly weaker; activity on oxycodone analgesia compared to micronized form (Male Wistar rats [1]; [4]): enhanced oxycodone analgesia significantly less when compared to the micronized form
9 | Magnesium citrate |  |  |  |  |  |  |  | effect on oxycodone analgesia (Male Wistar rats [1]; [4]): also enhanced oxycodone analgesia
10 | Magnesium citrate [micronized magnesium citrate] | did not exhibit analgesic activity | did not exhibit analgesic activity | did not alter the pain threshold | showed no analgesic activity | did not exhibit analgesic activity | lasted a shorter time | weaker, although significant | effect on analgesic activity of codeine (Male Wistar rats [1]; single administration): also enhanced codeine analgesia; effect on dihydrocodeine analgesia (Male Wistar rats [1]; [5]): also enhanced dihydrocodeine analgesia; effect on morphine analgesia (Male Wistar rats [1]; single administration): also enhanced morphine analgesia; enhancement of morphine analgesia lasted up to (Male Wistar rats [1]; single administration): 120 min; effect on antinociceptive activity of tramadol (Male Wistar rats [1]; [3]): also enhanced tramadol analgesia
11 | Magnesium citrate [normal magnesium citrate] | did not exhibit analgesic activity | did not exhibit analgesic activity | did not alter the pain threshold | showed no analgesic activity | did not exhibit analgesic activity | significantly weaker | much weaker | activity on codeine analgesia compared to micronized form (Male Wistar rats [1]; single administration): significantly weaker; activity on oxycodone analgesia compared to micronized form (Male Wistar rats [1]; [4]): enhanced oxycodone analgesia significantly less when compared to the micronized form
